{"source": "patent US20080207722A1", "about": "“Glepp-1 Inhibitors in the Treatment of Autoimmune and/or Inflammatory Disorders” (LABORATORIES SERONO SA, priority 2005, published 2008)", "key": {"[1]": {"target": "T1, catalytic core of a human recombinant Glepp-1 (Homo sapiens, UniProt Q16827)", "T1 construct": "using the catalytic core of a human recombinant Glepp-1 as the enzyme; made in house", "T1 sequence (Q16827 938-1195 limits assumed)": "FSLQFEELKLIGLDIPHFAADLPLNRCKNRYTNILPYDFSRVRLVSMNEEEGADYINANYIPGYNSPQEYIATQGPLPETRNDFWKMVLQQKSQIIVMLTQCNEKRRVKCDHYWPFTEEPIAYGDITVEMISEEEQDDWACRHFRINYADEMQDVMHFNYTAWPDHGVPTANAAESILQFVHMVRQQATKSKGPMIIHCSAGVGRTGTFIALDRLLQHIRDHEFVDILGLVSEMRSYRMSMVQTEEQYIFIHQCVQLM", "assay": "Glepp-1 PTP enzyme assay (DiFMUP dephosphorylation)", "type": "biochemical", "conditions": "Glepp-1, DiFMUP substrate, 30 minutes at room temperature; read-out: Inhibition (IC50)", "source_text": "The PTP Enzyme Assay aims at determining the extent of inhibition of Glepp-1 in the presence of a test compound. The inhibition is illustrated by IC50 values which denote the concentration of test compound necessary to achieve an inhibition of 50% of Glepp-1 using the following concentration of the Glepp-1 substrate DiFMUP:\nThe DiFMUP assay allows to follow the dephosphorylation of DiFMUP (6,8-DiFluoro-4-MethylUmbelliferyl Phosphate)—which is the Glepp-1 substrate—mediated by Glepp-1 into its stable hydrolysis product, i.e. DiFMU (6,8-difluoro-7-hydroxy coumarin). Due to its rather low pKa and its high quantum yield, DiFMU allows to measure both acidic and alkaline phosphatase activities with a great sensitivity.\nAssays were performed in a 96 well plate format, using the catalytic core of a human recombinant Glepp-1 as the enzyme and 6,8-DiFluoro-4-MethylUmbelliferyl Phosphate (DiFMUP, Molecular Probes, D-6567) as a substrate. Compounds to be tested were dissolved in 100% DMSO at a concentration of 2 mM. Subsequent dilutions of the test compounds (to yield a concentration of 100, 30, 10, 3, 1, 0.3, 0.1, 0.03, 0.01, 0.001 μM) were performed in 60% DMSO manually. 8 μl of diluted compound or vehicle (60% DMSO=control) was distributed to a black Costar 96 well plate. 42 μl of human recombinant Glepp-1 enzyme diluted in assay buffer (20 mM Tris HCl pH 7.5, 0.01% IGEPAL CA-630, 0.1 mM ethylenediaminetetracetic acid, 1 mM DL-Dithiothreitol) can be added to the dilutions of compound or vehicle (distributed to a black Costar 96 well plate), followed by 50 μl of DiFMUP diluted in the assay buffer. The reaction ran for 30 minutes at room temperature before reading the fluorescence intensity (integral or intensity) on a Perkin-Elmer Victor 2 spectrofluorimeter (excitation of 6,8-difluoro-7-hydroxy coumarin is at 355 nm, the emission at 460 nm, for 0.1 s). The percentage of inhibition is determined by measuring the relative fluorescence ion absence of a test compound (PTP inhibitor), i.e. with the solvent alone (5% DMSO). The IC50 values for inhibition were determined in triplicates."}, "Balb/c mice": {"test_system": "Balb/c mice", "assay": "Dextran Sodium Sulfate-induced ulcerative colitis in mice", "type": "in vivo", "conditions": "for body weight loss: po", "procedure": "Ulcerative colitis (UC) was induced in female mice (Balb/c, 20-22 g, Elevage Janvier) by Dextran Sodium Sulfate (DSS 4%) administered in drinking water. The mice had free access to DSS during 7 days. Body weight was determined daily. The severity of the UC was assessed by a clinical score (range 0 to 4) estimating the constituency of the stool (0=firm, 1=loose, 2=diarrhea) and the presence of blood (0=no blood, 1=occult blood, 2=gross rectal bleeding). Seven days after the induction of the disease, the animals were sacrificed. The length and the weight of the colon were determined and the ratio Weight/Length/100 g body weight was calculated. The spleen weight was also determined.\nCompound of the invention (10, 30 & 100 mg/kg, po) was suspended in 0.5% methocel/0.25% tween 20 and was administered twice daily at days 3, 4, 5 and 6 after the induction of the UC. Sulfasalazine (200 mg/kg, po) was used as reference compound."}, "THP-1 cells": {"test_system": "THP-1 cells", "assay": "In vitro chemotaxis, MCP-1-induced, THP1 cells (transwell)", "type": "cell-based", "conditions": "Homo sapiens, MCP-1/CCL2 in lower chamber, 3 hours, read-out: block chemotaxis, EC50", "source_text": "The compounds of Formula (I), (II), (III), (IV), (V), (VI) and (VII), may be subjected to the following assays: • (1) Glepp-1 binding assay (in vitro) • (2) In vitro assay(s): Cell functional effect. Effect on MCP-1-induced chemotaxis on THP-1 cells • (3) Lymphocyte recruitment by thioglycollate (in vivo model for inflammation) • (4) Collagen induced arthritis (CIA) in mice (in vivo model for inflammation) • (5) Contact hypersensitivity (CHS is a T cell-mediated model of skin inflammation) • (6) EAE (in vivo model for MS) • (7) Ulcerative colitis\nThe assay was performed as follows: After starvation of THP1 cells in serum free medium for 3 hours, 10^7 cells/ml in medium containing 0.5% BSA, and inhibitors, when indicated. 100 μl of cells were applied to the top chamber (5 μm pore size transwell plates, COSTAR, New York) and 6001 of medium containing MCP-1/CCL2, in the absence or presence of test compounds, were added to the lower chamber. After incubation at 37° C. and 5% of CO2 for 3 hours, cells that passed through the membrane were collected and counted in a Beckman Coulter® AcT 5Diff™."}, "[2]": {"conditions": "10 mg/kg po twice daily days 3-6, versus vehicle treated group"}, "[3]": {"conditions": "30 mg/kg po twice daily days 3-6, versus vehicle treated group"}, "[4]": {"conditions": "100 mg/kg po twice daily days 3-6, versus vehicle treated group"}}, "data": [{"smiles": "N#Cc1ccc(C(=O)Nc2ccc(C(=O)N/N=C3\\C(=O)Nc4ccc(I)cc43)cc2)cc1", "note": "[4-cyano-N-(4-{[(2Z)-2-(5-iodo-2-oxo-1,2-dihydro-3H-indol-3-ylidene)hydrazino]carbonyl}phenyl)benzamide]", "values": [{"measurement": "IC50", "setting": "[1]", "value": "< 1000", "unit": "nM"}]}, {"smiles": "CCCCCCCCC#Cc1ccc(CN(C(=O)/C=C/c2cccc(C(F)(F)F)c2)c2ccc(O)c(C(=O)O)c2)cc1", "note": "[5-((4-dec-1-ynylbenzyl){(2E)-3-[3-(trifluoromethyl)phenyl]prop-2-enoyl}amino)-2-hydroxybenzoic acid]", "values": [{"measurement": "IC50", "setting": "[1]", "value": "< 1000", "unit": "nM"}]}, {"smiles": "CCCCCCN(Cc1ccc(C#Cc2ccc(CCCC)cc2)cc1)c1ccc(O)c(C(=O)O)c1", "note": "[5-[{4-[(4-butylphenyl)ethynyl]benzyl}(hexyl)amino]-2-hydroxybenzoic acid]", "values": [{"measurement": "colon reduction, estimated by the Weight/Length ratio", "setting": "Balb/c mice; [2]", "value": "−22", "unit": "%"}, {"measurement": "colon reduction, estimated by the Weight/Length ratio", "setting": "Balb/c mice; [3]", "value": "−28", "unit": "%"}, {"measurement": "splenomegaly reduced", "setting": "Balb/c mice; [3]", "value": "−31", "unit": "%"}, {"measurement": "colon reduction, estimated by the Weight/Length ratio", "setting": "Balb/c mice; [4]", "value": "−35", "unit": "%"}, {"measurement": "splenomegaly reduced", "setting": "Balb/c mice; [4]", "value": "−65", "unit": "%"}, {"measurement": "body weight loss", "setting": "Balb/c mice; 10, 30 & 100 mg/kg", "value": "prevented"}, {"measurement": "IC50", "setting": "[1]", "value": "< 1000", "unit": "nM"}, {"measurement": "EC50", "setting": "THP-1 cells", "value": "1000 to 15000", "unit": "nM"}]}, {"smiles": "CCCCCCN(Cc1ccccc1C#Cc1ccc(CCCC)cc1)C(=O)c1ccc(O)c(C(=O)O)c1", "note": "[5-{[{2-[(4-butylphenyl)ethynyl]benzyl}(hexyl)amino]carbonyl}-2-hydroxybenzoic acid]", "values": [{"measurement": "colon reduction, estimated by the Weight/Length ratio", "setting": "Balb/c mice; [2]", "value": "−47", "unit": "%"}, {"measurement": "splenomegaly reduced", "setting": "Balb/c mice; [2]", "value": "−25", "unit": "%"}, {"measurement": "colon reduction, estimated by the Weight/Length ratio", "setting": "Balb/c mice; [3]", "value": "−50", "unit": "%"}, {"measurement": "splenomegaly reduced", "setting": "Balb/c mice; [3]", "value": "−45", "unit": "%"}, {"measurement": "body weight loss", "setting": "Balb/c mice; 10 & 30 mg/kg", "value": "prevented"}]}, {"smiles": "CCCCCCN(Cc1ccc(C#Cc2ccc(CCCC)cc2)cc1)C(=O)c1ccc(O)c(C(=O)O)c1", "note": "[5-{[{4-[(4-butylphenyl)ethynyl]benzyl}(hexyl)amino]carbonyl}-2-hydroxybenzoic acid]", "values": [{"measurement": "IC50", "setting": "[1]", "value": "< 1000", "unit": "nM"}, {"measurement": "EC50", "setting": "THP-1 cells", "value": "1000 to 15000", "unit": "nM"}]}, {"smiles": "CCCCCCCCNC(=O)c1ccc(-c2nc(CN(Cc3ccc(OCC(=O)O)cc3)C(=O)CCc3ccccc3)cs2)cc1", "note": "[(4-{[[(2-{4-[(octylamino)carbonyl]phenyl}-1,3-thiazol-4-yl)methyl](3-phenylpropanoyl)amino]methyl}phenoxy)acetic acid]", "values": [{"measurement": "IC50", "setting": "[1]", "value": "< 1000", "unit": "nM"}]}, {"smiles": "O=C1NN(c2ccc(I)cc2)C(=O)/C1=C/c1ccc(Br)o1", "note": "[(4E)-4-[(5-bromo-2-furyl)methylene]-1-(4-iodophenyl)pyrazolidine-3,5-dione]", "values": [{"measurement": "IC50", "setting": "[1]", "value": "< 1000", "unit": "nM"}]}, {"smiles": "CCCCCCc1ccc(C#Cc2ccc(CN(Cc3ccc(C(F)(F)F)cc3)C(=O)C(=O)O)cc2)cc1", "note": "[{{4-[(4-hexylphenyl)ethynyl]benzyl}[4-(trifluoromethyl)benzyl]amino}-(oxo)acetic acid]", "values": [{"measurement": "IC50", "setting": "[1]", "value": "< 1000", "unit": "nM"}, {"measurement": "EC50", "setting": "THP-1 cells", "value": "1000 to 15000", "unit": "nM"}]}]}
